Patent US20120277265A1, “NOVEL POLYQUINOLINE DERIVATIVES AND THE THERAPEUTIC USE THEREOF” (CENTRE NATIONAL DE LA RECHERCHE SCIENTIFIQUE (C.N.R.S.), priority 2005, published 2012)

Key:
[1] = molecular target: T1, Aβ1-42 (Homo sapiens, UniProt P05067); experiment: Inhibition of the precipitation of Aβ1-42 by the addition of ligand (Micro BCA assay of soluble/aggregated peptide); assay type: biochemical; conditions: Aβ1-42 5 μM, pH 7.4; for CuCl2 % soluble Aβ: 20 μM CuCl2, 1 h 37° C. then 1 h with 200 μM ligand; for FeCl3 % soluble Aβ: 20 μM FeCl3, 1 h 37° C. then 1 h with 200 μM ligand; for ZnCl2 % soluble Aβ: 20 μM ZnCl2, 1 h 37° C. then 1 h with 200 μM ligand; for without metal % soluble Aβ: no metal salt, 1 h 37° C. then 1 h with 200 μM ligand
T1 construct: The β-amyloid peptide Aβ1-42 (Aβ1-42) was synthesised, purified (to a purity greater than 95%); made in house; host or cells: chemical peptide synthesis (no expression host)
T1 sequence (P05067 672-713): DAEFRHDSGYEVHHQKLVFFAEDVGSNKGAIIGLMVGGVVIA
Procedure: After a further hour of incubation, the reaction mixture is centrifuged.
Before use, the water [of Milli-Q Millipore quality] and all buffer solutions were treated on Chelex-100 resin (Biorad) (5 mg/ml) and filtered through 0.2 μm filters (Whatman) to remove potential traces of metal ions or particles.
Working solutions of the peptide were prepared by solubilising 1 mg of lyophilised peptide in 500 μl of water and 500 μl of an aqueous NaOH solution pH=12.0, while stirring in a Thermomixer Comfort (Eppendorf). The peptide preparations are subsequently centrifuged for 10 minutes at 9,000 rpm and the supernatant is used as an “Aβ stock” solution. The concentration of peptide in the “Aβ stock” is determined immediately by colorimetric assay using a Micro BCA Protein Assays kit (Pierce) from standard ranges produced using known amounts of bovine serum albumin (BSA) then the Aβ1-42 peptide solution is aliquoted and frozen rapidly in liquid nitrogen prior to being stored at −20° C. until being used.
Salts are generated by adding one hydrochloric acid equivalent per nitrogen group equivalent of the ligand dissolved in DMSO. After evaporation of the solvent, these salts are dissolved at the desired concentration with DMSO and kept at −20° C. until they are used.
The protocol was established from works by: C. S. Atwood et al., J. Neurochem. […] The final concentrations are given. 500 μl of Aβ1-42 (5 μM is set to aggregate in 20 mM Tris-HCl buffer containing 150 mM NaCl (pH=7.4) for 1 hour at 37° C. while stirring at 1,400 rpm in the absence or presence of metal ions: CuCl2, ZnCl2 or FeCl3 (20 μM). Then 50 pi of ligand to be tested (200 μM) dissolved in DMSO are added and the samples are incubated for 1 further hour at 37° C. while stirring at 1,400 rpm. The samples without ligand also receive 50 μl of DMSO. The samples (final volume=550 μ) are subsequently centrifuged for 20 min at 9,000 rpm, and 500 μl of supernatant are removed. The tube containing the precipitation pellet then receives 450 μl of assay buffer/DMSO mixture (91/9, v/v). […] Quantification is carried out on the basis of standard BSA ranges. The amounts of Aβ1-42 actually contained in the pellet and the supernatant are obtained after a correction due to the presence of a residual portion of supernatant in the pellet-containing fraction.
For the control experiments with derivatives comprising a single quinoline residue, […] of ligand were added because complexes of type L2Cu are conventionally used in these cases.

[2] = Determination of log D7.4 (1-octanol / Tris-HCl buffer); assay type: physicochemical; conditions: 1-octanol / 20 mM Tris-HCl buffer containing 150 mM NaCl (pH = 7.4) (1/1, v/v)
Procedure: The ligand (2.0 mg) is dissolved in 2 ml of 1-octanol then 2 ml of 20 mM Tris-HCl buffer, pH=7.4 containing 150 mM NaCl are added. After mixing in a vortex for 3 min at ambient temperature, followed by centrifugation for 5 min at 9,000 rpm, the concentration of the ligand in each phase is determined by UV-visible spectrophotometry. The 1-octanol fractions are thus redivided until reproducible values of coefficient of division of obtained. This coefficient is expressed as the decimal logarithm of [(the concentration of ligand contained in the 1-octanol phase)/(the concentration of ligand contained in the buffered aqueous phase)]=log D7.4. Measurements were taken three times.

[3] = molecular target: T2, copper complexes of Aβ1-42 peptide (Homo sapiens, UniProt P05067); experiment: Hydrogen peroxide produced by Aβ1-42 in the presence of CuCl2, ascorbate, air and ligand (Amplex Red H2O2/HRP); assay type: biochemical; conditions: CuCl2 0.4 μM, ascorbate 10 μM, air
T2 construct: The β-amyloid peptide Aβ1-42 (Aβ1-42) was synthesised, purified (to a purity greater than 95%); made in house; host or cells: chemical peptide synthesis (no expression host)
T2 sequence (P05067 672-713 limits assumed, one chain of several): as the sequence (P05067 672-713) above
Procedure: (§1) FIG. 11: Variation in H2O2 production by copper complexes of Aβ1-42 peptide as a function of the Cu(II)/Aβ stoichiometry. Experiments are carried out for 5 minutes in a sodium phosphate buffer (pH=7.4) in the presence 0.4 μM CuCl2, 10 μM ascorbate and air with or without 0.4 μM of 3 or 7. The H2O2 released is quantified by means of an Amplex-Red H2O2/HRP Assay kit.
(§2) The final concentrations are given. The reactions were carried out in the dark in mM sodium phosphate buffer (pH=7.4). Aβ1-42 (0.2 μM) and CuCl2 (0.4 μM) were pre-incubated for 1 hour at 37° C. while stirring at 1,400 rpm in 375 μl of buffer. Then 2 μl of a solution of ligand to be investigated (0.2; 0.4 or 0.8 μM) in DMSO were added. After incubation for a further hour, 2 μl of an aqueous sodium ascorbate solution (10 μM) were added and incubation was continued for 5 min while stirring. The amount of H2O2 produced is then quantified using an Amplex Red H2O2/HRP Assay Kit (Molecular Probes) while adding a volume of assay reagent to the samples, then incubating them for 1 hour at 37° C. while stirring at 500 rpm. […] Quantification is carried out on the basis of standard curves obtained with known amounts of H2O2.
(§3) The figures in the tables correspond to the amount of H2O2 (expressed in nanomoles) added using an Amplex Red H2O2/HRP Assay kit.

[4] = as above; assay type: biochemical; conditions: CuCl2 0.4 μM, ascorbate 10 μM, air
Procedure: as §1, §2, §3

[5] = test system: copper complexes of Aβ1-42 peptide; experiment: Stability of H2O2 during the H2O2 production inhibition experiments (known amount of H2O2 added); assay type: biochemical; conditions: for H2O2 assayed: no Aβ1-42, Cu(II) 0.4 μM, ascorbate 10 μM, ligand 0.4 μM; for theoretical value of H2O2 if there is no degradation (in parentheses): ascorbate, ligand
Procedure: (§4) The final concentrations are given. The reactions were carried out in the dark in mM sodium phosphate buffer (pH=7.4). Aβ1-42 (0.2 μM) and CuCl2 (0.4 μM) were pre-incubated for 1 hour at 37° C. while stirring at 1,400 rpm in 375 μl of buffer. Then 2 μl of a solution of ligand to be investigated (0.2; 0.4 or 0.8 μM) in DMSO were added. After incubation for a further hour, 2 μl of an aqueous sodium ascorbate solution (10 μM) were added and incubation was continued for 5 min while stirring. The amount of H2O2 produced is then quantified using an Amplex Red H2O2/HRP Assay Kit (Molecular Probes) while adding a volume of assay reagent to the samples, then incubating them for 1 hour at 37° C. while stirring at 500 rpm. H2O2 is then detected by spectrophotometry at 563 nm. Quantification is carried out on the basis of standard curves obtained with known amounts of H2O2.
(§5) Experiments were also carried out in the presence of a known amount of H2O2, added just before or just after the addition of sodium ascorbate, in order to investigate the stability of H2O2 under the experimental conditions employed.

[6] = molecular target: T2, copper complexes of Aβ1-42 peptide; experiment: as above; assay type: biochemical; conditions: Aβ1-42 0.2 μM, Cu(II) 0.4 μM, ascorbate 10 μM, ligand 0.4 μM
Procedure: as §4, §5

[7] = 3.0 nanomoles H2O2 added just before the ascorbate

Oc1cccc2cccnc12 [8-hydroxyquinoline, reference compound]
CuCl2 % soluble Aβ [1]: 70 ± 3%
FeCl3 % soluble Aβ [1]: 80%
ZnCl2 % soluble Aβ [1]: 88%
without metal % soluble Aβ [1]: 85%
logD at 3 min [2]: 2.1 ± 0.1
amount of H2O2, 0.2 μM Aβ1-42 Cu/Aβ = 2 ([3]; ligand 1 eq/Cu(II) (0.4 μM)): 0.69 nmol
amount of H2O2, 0.5 μM Aβ1-42 Cu/Aβ = 0.75 ([3]; ligand 1 eq/Cu(II) (0.4 μM)): 0.75 nmol
amount of H2O2, 0.2 μM Aβ1-42 Cu/Aβ = 2 ([3]; ligand 2 eq/Cu(II)): 0.71 ± 0.05 nmol
amount of H2O2, 0.5 μM Aβ1-42 Cu/Aβ = 0.75 ([3]; ligand 2 eq/Cu(II)): 0.62 nmol
amount of H2O2, without Aβ1-42 ([4]; ligand 1 eq/Cu(II) (0.4 μM)): 2.02 nmol
amount of H2O2, without Aβ1-42 ([4]; ligand 2 eq/Cu(II)): 0.62 nmol

Oc1cccc2ccc(Cc3ccc4cccc(O)c4n3)nc12 [Compound 1, 2,2′-methanediyl-bis(8-hydroxyquinoline)]
CuCl2 % soluble Aβ [1]: 60 ± 5%
FeCl3 % soluble Aβ [1]: 61%
ZnCl2 % soluble Aβ [1]: 63%
without metal % soluble Aβ [1]: 63 ± 4%
logD at 3 min [2]: 3.3 ± 0.1
amount of H2O2, 0.2 μM Aβ1-42 Cu/Aβ = 2 ([3]; ligand 1 eq/Cu(II) (0.4 μM)): 0.75 ± 0.11 nmol
amount of H2O2, 0.5 μM Aβ1-42 Cu/Aβ = 0.75 ([3]; ligand 1 eq/Cu(II) (0.4 μM)): 0.76 nmol
amount of H2O2, without Aβ1-42 ([4]; ligand 1 eq/Cu(II) (0.4 μM)): 0.54 nmol

Oc1cccc2ccc(CC(Cc3ccc4cccc(O)c4n3)c3ccc4cccc(O)c4n3)nc12 [Compound 11, 2,2′,2″-(1,2,3-Propanetriyl)-tris(8-hydroxyquinoline)]
CuCl2 % soluble Aβ [1]: 48%
FeCl3 % soluble Aβ [1]: 43%
ZnCl2 % soluble Aβ [1]: 45%
without metal % soluble Aβ [1]: 48%
logD at 3 min [2]: 3.7 ± 0.1

Cc1ccc2cccc(O)c2n1 [8-hydroxyquinaldine, reference compound]
CuCl2 % soluble Aβ [1]: 52%
FeCl3 % soluble Aβ [1]: 51%
ZnCl2 % soluble Aβ [1]: 62%
without metal % soluble Aβ [1]: 69%
logD at 3 min [2]: 2.4 ± 0.1

O=C(Nc1ccc2cccc(O)c2n1)c1ccc2cccc(O)c2n1 [Compound 18, 8-hydroxy-N-(8-hydroxy-2-quinolinyl)-2-quinolinecarboxamide]
H2O2 assayed [5, 7]: 3.5 (3.5) nanomoles
H2O2 assayed ([5]; no H2O2 added): 0.47 nmol
theoretical value of H2O2 if there is no degradation (in parentheses) ([5]; no Aβ1-42, Cu(II), 3.0 nanomoles H2O2 added just before the ascorbate): 3.5 (3.5) nanomoles
CuCl2 % soluble Aβ [1]: 46 ± 3%
FeCl3 % soluble Aβ [1]: 49%
ZnCl2 % soluble Aβ [1]: 62 ± 5%
without metal % soluble Aβ [1]: 66%
logD at 3 min [2]: 3 ± 0.1
amount of H2O2, 0.2 μM Aβ1-42 Cu/Aβ = 2 ([3]; ligand 1 eq/Cu(II) (0.4 μM)): 0.47 nmol
amount of H2O2, 0.5 μM Aβ1-42 Cu/Aβ = 0.75 ([3]; ligand 1 eq/Cu(II) (0.4 μM)): 0.45 nmol
amount of H2O2, without Aβ1-42 ([4]; ligand 1 eq/Cu(II) (0.4 μM)): 0.47 nmol

Cc1ccc2cccc(NCCNc3cccc4ccc(C)nc34)c2n1 [Compound 14, N,N′-bis(2-methyl-8-quinolinyl)-1,2-ethanediamine]
H2O2 assayed [6, 7]: 4.9 nmol
H2O2 assayed ([6]; no H2O2 added): 1.99 ± 0.11 nmol
theoretical value of H2O2 if there is no degradation (in parentheses) ([5]; Aβ1-42 0.2 μM, Cu(II), 3.0 nanomoles H2O2 added just before the ascorbate): 5.0 nmol
CuCl2 % soluble Aβ [1]: 45 ± 3%
FeCl3 % soluble Aβ [1]: 51%
ZnCl2 % soluble Aβ [1]: 57%
without metal % soluble Aβ [1]: 79 ± 3%
logD at 3 min [2]: 1.8 ± 0.1
amount of H2O2, 0.2 μM Aβ1-42 Cu/Aβ = 2 ([3]; ligand 1 eq/Cu(II) (0.4 μM)): 1.99 nmol
amount of H2O2, 0.5 μM Aβ1-42 Cu/Aβ = 0.75 ([3]; ligand 1 eq/Cu(II) (0.4 μM)): 0.78 nmol
amount of H2O2, without Aβ1-42 ([4]; ligand 1 eq/Cu(II) (0.4 μM)): 0.74 nmol
